Legend:
[1] = tested on: Schistosoma mansoni; experiment: Antischistosomal activity against Schistosoma mansoni LE assessed as reduction in worm motor activity at 100 uM measured after 72 hrs relative to control; type: functional; parameters: scale not given: the % may be the effect or the level left
[2] = tested on: Schistosoma mansoni; experiment: Antischistosomal activity against Schistosoma mansoni LE assessed as worm mortality at 200 uM measured after 24 hrs relative to control; type: functional
[3] = tested on: Schistosoma mansoni; experiment: Antischistosomal activity against Schistosoma mansoni infected in MF1 swiss albino mouse assessed as worm burden reduction at 200 mg/kg, po measured after 2 weeks by stereomicroscopy relative to control; type: functional; parameters: scale not given: the % may be the effect or the level left
[4] = tested on: Schistosoma mansoni; experiment: Antischistosomal activity against Schistosoma mansoni Egyptian assessed as reduction in motor activity at 50 to 200 ug/ml incubated upto 72 hrs by stereomicroscopy; type: functional; parameters: scale not given: the % may be the effect or the level left; settings: dose 50-200 µg/ml; time hrs <=72; at 50 to 200 µg/mL
[5] = tested on: Schistosoma mansoni; experiment: Antischistosomal activity against Schistosoma mansoni Egyptian assessed as worm death at 50 to 200 ug/ml incubated upto 72 hrs by stereomicroscopy; type: functional; settings: dose 50-200 µg/ml; time hrs <=72; at 50 to 200 µg/mL
[6] = tested on: Schistosoma mansoni; experiment: Antischistosomal activity against Schistosoma mansoni Egyptian assessed as tegument damage at 50 to 200 ug/ml incubated upto 72 hrs by inverted microscopy; type: functional; settings: dose 50-200 µg/ml; time hrs <=72; at 50 to 200 µg/mL
[7] = tested on: Schistosoma mansoni; experiment: Antischistosomal activity against Schistosoma mansoni Egyptian assessed as reduction in egg production at 50 to 200 ug/ml incubated upto 72 hrs by microscopic method relative to control; type: functional; parameters: scale not given: the % may be the effect or the level left; settings: dose 50-200 µg/ml; time hrs <=72; at 50 to 200 µg/mL
[8] = tested on: Schistosoma mansoni; experiment: Antischistosomal activity against Schistosoma mansoni assessed as worm death at <= 100 uM measured within 72 hrs relative to control; type: functional; settings: dose microM <=100
[9] = tested on: Schistosoma mansoni; experiment: Antischistosomal activity against Schistosoma mansoni assessed as tegument damage at <=100 uM measured within 72 hrs relative to control; type: functional; settings: dose microM <=100
[10] = tested on: Schistosoma mansoni; experiment: Antischistosomal activity against Schistosoma mansoni assessed as reduction in worm motor activity at <=100 uM measured within 72 hrs relative to control; type: functional; parameters: scale not given: the % may be the effect or the level left; settings: dose microM <=100
[11] = tested on: Schistosoma mansoni; experiment: Antischistosomal activity against Schistosoma mansoni incubated for 24 hrs by MTT assay; type: functional, organism-based
[12] = tested on: Schistosoma mansoni; experiment: Antischistosomal activity against larva Schistosoma mansoni infected in ICR mouse assessed as reduction in worm burden at 8 mg/kg, ip administered for 5 consecutive days; type: functional; parameters: scale not given: the % may be the effect or the level left
[13] = tested on: Schistosoma mansoni; experiment: Antischistosomal activity against adult Schistosoma mansoni infected in ICR mouse assessed as reduction in worm burden at 8 mg/kg, ip administered for 5 consecutive days; type: functional; parameters: scale not given: the % may be the effect or the level left
[14] = tested on: Schistosoma mansoni; experiment: Antischistosomal activity against juvenile Schistosoma mansoni infected in ICR mouse assessed as reduction in worm burden at 8 mg/kg, ip administered for 5 consecutive days; type: functional; parameters: scale not given: the % may be the effect or the level left
[15] = tested on: Schistosoma japonicum; experiment: Antischistosomal activity against juvenile Schistosoma japonicum infected in ICR mouse assessed as reduction in worm burden at 8 mg/kg, ip administered for 5 consecutive days; type: functional; parameters: scale not given: the % may be the effect or the level left
[16] = tested on: Schistosoma japonicum; experiment: Antischistosomal activity against larva Schistosoma japonicum infected in ICR mouse assessed as reduction in worm burden at 8 mg/kg, ip administered for 5 consecutive days; type: functional; parameters: scale not given: the % may be the effect or the level left
[17] = tested on: Schistosoma japonicum; experiment: Antischistosomal activity against adult Schistosoma japonicum infected in ICR mouse assessed as reduction in worm burden at 8 mg/kg, ip administered for 5 consecutive days; type: functional; parameters: scale not given: the % may be the effect or the level left
[18] = tested on: Schistosoma mansoni; experiment: Antischistosomal activity against Schistosoma mansoni BH assessed as reduction in motor activity at 12.5 to 100 uM measured up to 72 hrs by light microscopic method relative to control; type: functional; parameters: scale not given: the % may be the effect or the level left; settings: dose 12.5-100 µM, time hrs <=72
[19] = tested on: Schistosoma mansoni; experiment: Antischistosomal activity against Schistosoma mansoni BH assessed as tegument damage at 12.5 to 100 uM measured up to 72 hrs by confocal laser scanning microscopic method relative to control; type: functional; settings: dose 12.5-100 µM, time hrs <=72
[20] = tested on: Schistosoma mansoni; experiment: Antischistosomal activity against Schistosoma mansoni BH infected in Balb/C mouse assessed as reduction in worm burden at 100 mg/kg, po measured after 2 weeks by Kato-Katz quantitative method; type: functional; parameters: Activity: scale not given: the % may be the effect or the level left
[21] = tested on: Schistosoma mansoni; experiment: Antischistosomal activity against Schistosoma mansoni BH assessed as worm death at 12.5 to 100 uM measured up to 72 hrs by light microscopic method relative to control; type: functional; settings: dose 12.5-100 µM, time hrs <=72

## COC(=O)/C=C/c1ccc2c(c1)[C@@H](C(=O)OC)[C@H](c1ccc(OC(C)=O)cc1)O2
[1]
  Activity: 100%
[2]
  Activity: 100%

## O=S(=O)(c1ccc(O)c2ncccc12)C1C(c2ccccc2)=Nc2ccncc2N=C1c1ccccc1 (stereo unspecified)
[3]
  Activity: 81.2%
[4]
  Activity: 100%
[5]
  mortality: 100%
[6]
  Activity: 20%
[7]
  Activity: 54%

## C/C=C/c1cc(OC)c2c(c1)C(C)C(c1ccc(O)c(OC)c1)O2 (stereo unspecified) [DEHRODIISOEUGENOL]
[8]
  mortality: 100%
[9]
  Activity: 25%
[10]
  Activity: 100%
[11]
  IC50: 53.5 µM

## C[C@@H]1O[C@@H](O[C@@H]2C[C@@H](O[C@@H]3O[C@H](CO)[C@@H](O)[C@H](O)[C@H]3O)CO[C@H]2O[C@H]2CC[C@]3(C)[C@H]4CC=C5[C@@H]6CC(C)(C)CC[C@]6(C(=O)O)CC[C@@]5(C)[C@]4(C)CC[C@H]3C2(C)C)[C@H](O)[C@H](O)[C@H]1O
[12]
  Activity: 88.6%
[13]
  Activity: 70.6%
[14]
  Activity: 68.3%
[15]
  Activity: 59.9%
[16]
  Activity: 90%
[17]
  Activity: 53.2%

## C=C1C(=O)O[C@@H]2C3O[C@]3(C)CC/C=C(\C)CC[C@@H]12 (stereo partly specified)
[18]
  Activity: 100%
[19]
  Activity: 100%
[20]
  Activity: 64.1%
[21]
  mortality: 100%

— ChEMBL document CHEMBL4811216, “Chemotherapy for human schistosomiasis: how far have we come? What's new? Where do we go from here?” (RSC Med Chem, 2020)
